In patent US6017918A, “Phenyl glycine compounds and methods of treating atherosclerosis and restenosis” (Warner-Lambert Company, priority 1999, dated 2000):
Where “and” joins values, the source holds several entries; their conditions need not be identical. Identical values can stand only once.

Experiments:
[1] = system: apolipoprotein(a), [apo(a)], apolipoproteinB-100, [apoB-100], coupling reaction that generates Lp(a); assay: LPABC screen: lipoprotein(a) biochemical coupling assay, Lp(a) by ELISA; settings: recombinant apo(a) + HepG2 conditioned media, 67 minutes, 37° C.; ^a = multiple tests
Excerpt: The lipoprotein(a), [Lp(a)], biochemical coupling assay (LPABC) is used to characterize inhibitors of the apolipoprotein(a), [apo(a)], apolipoproteinB-100, [apoB-100], coupling reaction that generates Lp(a).
Protocol Conditioned media from 293 cells (ATCC CRL-1573), permanently transfected with an apo(a) 17-kringle cDNA expression construct (pcDNA-AMP, In Vitrogen, Carlsbad, Calif.) using standard molecular biology techniques, was used as a source of recombinant apo(a). The 293 cell conditioned media containing the recombinant apo(a) is diluted 1:3 with phosphate buffered saline (PBS) and 90 μL is pipetted into each well of a 96-well plate and placed into a 37° C. incubator for 10 minutes. Twenty microliters of a 0.3 to 50 μM solution of a compound of the present invention in PBS is added to the warmed plate. Ninety microliters of HepG2 (ATCC HB-8065) cell conditioned media diluted 1:3 with PBS is added to the apo(a)/compound mixture and mixed by pipetting up and down 5 times. The reaction is incubated for 67 minutes in a 37° C. incubator. A 100 μL aliquot of the reaction is removed and assayed for its Lp(a) content by an enzyme linked immunosorbent assay (ELISA).

[2] = system: Lp(a) production (HepG2^K17 cells); assay: LPA3 screen: inhibition of Lp(a) production in HepG2^K17 cells, Lp(a) by ELISA; format: cell-based; settings: 8 h, Lp(a) normalized for total protein, ^a = multiple tests
Experimental: The LPA3 screen is used to identify compounds that inhibit Lp(a) production. This screen employs permanently transfected HepG2 cells (HepG2^K17) that are generated using an apo(a) 17-kringle cDNA expression construct (pcDNA-AMP, In Vitrogen, Carlsbad, Calif.) in accordance with methods that are well-known in molecular biology.
HepG2^K17 cells are seeded in 96-well plates at a density of 75,000 cells per well in 0.25 mL of Dulbecco's Modified Eagle Media (DMEM) containing 10% fetal bovine serum (FBS). Seeded plates are incubated overnight in a 37° C., 5% CO2 /95% […] incubator. The media is removed, replaced with (1) fresh media, or (2) fresh media plus 0.3 to 50 μM of a compound of the present invention in 20 μL of PBS, and the plates returned to the incubator for 8 hours. After the additional 8 hours of incubation, Lp(a) is assayed in the media by ELISA. Cells are digested with 0.5N NaOH overnight and assayed for total protein. Lp(a) values are normalized for total protein content.

Row | Structure (SMILES) | IC50 [1] | IC50 [2]
1 | CCOC(=O)C(NCc1ccsc1)c1cc(C(C)(C)C)c(O)c(C(C)(C)C)c1 (centres unmarked) [Example 46, (3,5-Di-tert-butyl-4-hydroxy-phenyl)-[(thiophen-3-ylmethyl)-amino]-acetic acid ethyl ester] | 34.5 µM | > 74 µM
2 | CCOC(=O)C(NCC1CCCCC1)c1cc(C(C)CC)c(O)c(C(C)CC)c1 (centres unmarked) [Example 13, (Cyclohexylmethyl-amino)-(3,5-di-sec-butyl-4-hydroxy-phenyl)-acetic acid ethyl ester] | 67.4 µM | 
3 | CCOC(=O)C(NCc1cccc([N+](=O)[O-])c1)c1cc(C(C)(C)C)c(O)c(C(C)(C)C)c1 (centres unmarked) [Example 50, (3,5-Di-tert-butyl-4-hydroxy-phenyl)-(3-nitro-benzylamino)-acetic acid ethyl ester] | 46.7 µM | > 74 µM
4 | CCOC(=O)C(NCc1cccc(C(F)(F)F)c1)c1cc(C(C)(C)C)c(O)c(C(C)(C)C)c1 (centres unmarked) [Example 48, (3,5-Di-tert-butyl-4-hydroxy-phenyl)-(3-trifluoromethyl-benzylamino)-acetic acid ethyl ester] | 53.9 µM | > 74 µM
5 | CCOC(=O)C(NCc1ccc(N)cc1)c1cc(C(C)(C)C)c(O)c(C(C)(C)C)c1 (centres unmarked) [Example 30, (4-Amino-benzylamino)-(3,5-di-tert-butyl-4-hydroxy-phenyl)-acetic acid ethyl ester] | 62.6 µM | > 74 µM
6 | CCOC(=O)C(NCc1ccc(O)c(OCC)c1)c1cc(C(C)(C)C)c(O)c(C(C)(C)C)c1 (centres unmarked) [Example 39, (3,5-Di-tert-butyl-4-hydroxy-phenyl)-(3-ethoxy-4-hydroxy-benzylamino)-acetic acid ethyl ester] | 59.1 µM | > 74 µM
7 | CCOC(=O)C(c1cc(C(C)(C)C)c(O)c(C(C)(C)C)c1)N(Cc1cccnc1)Cc1cccnc1 (centres unmarked) [Example 9, (Bis-pyridin-3-ylmethyl-amino)-(3,5-di-tert-butyl-4-hydroxy-phenyl)-acetic acid ethyl ester] | 1.34 µM and 1.3 µM | 
8 | CCOC(=O)C(NCC1CCCCC1)c1cc(-c2ccccc2)c(O)c(-c2ccccc2)c1 (centres unmarked) [Example 11, (Cyclohexylmethyl-amino)-(2'-hydroxy-[1,1';3',1"]terphenyl-5'-yl)-acetic acid ethyl ester] | 60.2 µM | 
9 | CC(C)(C)c1cc(C(NCc2cccnc2)C(=O)O)cc(C(C)(C)C)c1O (centres unmarked) [Example 7, (3,5-Di-tert-butyl-4-hydroxy-phenyl)-[(pyridin-3-ylmethyl)-amino]-acetic acid] | 62.2 µM | 
10 | CCOC(=O)C(NCc1ccccc1Cl)c1cc(C(C)(C)C)c(O)c(C(C)(C)C)c1 (centres unmarked) [Example 33, (2-Chloro-benzylamino)-(3,5-di-tert-butyl-4-hydroxy-phenyl)-acetic acid ethyl ester] | 43.4 µM | > 74 µM
11 | CCOC(=O)C(NCc1ccc(O)cc1)c1cc(C(C)(C)C)c(O)c(C(C)(C)C)c1 (centres unmarked) [Example 43, (3,5-Di-tert-butyl-4-hydroxy-phenyl)-(4-hydroxy-benzylamino)-acetic acid ethyl ester] |  | > 74 µM
12 | CCOC(=O)C(NCc1ccccc1OC)c1cc(C(C)(C)C)c(O)c(C(C)(C)C)c1 (centres unmarked) [Example 44, (3,5-Di-tert-butyl-4-hydroxy-phenyl)-(2-methoxy-benzylamino)-acetic acid ethyl ester] | 54.3 µM | > 74 µM
13 | CCOC(=O)C(NCc1cccc(O)c1)c1cc(C(C)(C)C)c(O)c(C(C)(C)C)c1 (centres unmarked) [Example 42, (3,5-Di-tert-butyl-4-hydroxy-phenyl)-(3-hydroxy-benzylamino)-acetic acid ethyl ester] | 68.4 µM | > 74 µM
14 | CCOC(=O)C(NCc1ccc(N(C)C)cc1)c1cc(C(C)(C)C)c(O)c(C(C)(C)C)c1 (centres unmarked) [Example 38, (3,5-Di-tert-butyl-4-hydroxy-phenyl)-[4-dimethylamino-benzylamino]-acetic acid ethyl ester] | 54 µM | > 74 µM
15 | CCOC(=O)C(NCc1ccc(OC)cc1)c1cc(C(C)(C)C)c(O)c(C(C)(C)C)c1 (centres unmarked) [Example 32, (3,5-Di-tert-butyl-4-hydroxy-phenyl)-(4-methoxy-benzylamino)-acetic acid ethyl ester] | 29.6 µM | > 74 µM
16 | CCOC(=O)C(NCc1ccccc1C(F)(F)F)c1cc(C(C)(C)C)c(O)c(C(C)(C)C)c1 (centres unmarked) [Example 47, (3,5-Di-tert-butyl-4-hydroxy-phenyl)-(2-trifluoromethyl-benzylamino)-acetic acid ethyl ester] | 33.4 µM | > 74 µM
17 | CCOC(=O)C(NCc1cc(C(C)(C)C)c(O)c(C(C)(C)C)c1)c1cc(C(C)(C)C)c(O)c(C(C)(C)C)c1 (centres unmarked) [Example 18] | 75 µM | 

Second part, led by results:

Row | IC50 [1] | Structure (SMILES) | IC50 [2]
18 | 10.3 µM | CCOC(=O)C(NCc1cc(OC)c(OC)c(OC)c1)c1cc(C(C)(C)C)c(O)c(C(C)(C)C)c1 (centres unmarked) [Example 15, (3,5-Di-tert-butyl-4-hydroxy-phenyl)-(3,4,5-trimethoxy-benzylamino)-acetic acid ethyl ester] | 4.6 µM
19 | 10.3 µM | CCOC(=O)C(NCc1ccccc1)c1cc(C(C)(C)C)c(O)c(C(C)(C)C)c1 (centres unmarked) [Example 5, Benzylamino-(3,5-di-tert-butyl-4-hydroxy-phenyl)-acetic acid ethyl ester] | 76 µM
20 | 6.48 µM | CCOC(=O)C(NCc1ccccn1)c1cc(C(C)(C)C)c(O)c(C(C)(C)C)c1 (centres unmarked) [Example 4] | 9.1 µM
21 | 10.6 µM | CCOC(=O)C(NCc1cc(O)c(OC)c(OC)c1)c1cc(C(C)(C)C)c(O)c(C(C)(C)C)c1 (centres unmarked) [Example 14, (3,5-Di-tert-butyl-4-hydroxy-phenyl)-(3-hydroxy-4,5-dimethoxy-benzylamino)-acetic acid ethyl ester] | 9.3 µM
22 | 12.5 µM | CCOC(=O)C(NCc1cccc(Cl)c1)c1cc(C(C)(C)C)c(O)c(C(C)(C)C)c1 (centres unmarked) [Example 10, (3-Chloro-benzylamino)-(3,5-di-tert-butyl-4-hydroxy-phenyl)-acetic acid ethyl ester] | 
23 | 1.66 µM | CCOC(=O)C(c1cc(C(C)(C)C)c(O)c(C(C)(C)C)c1)N1CCN(C)CC1 (centres unmarked) [Example 55, (3,5-Di-tert-butyl-4-hydroxy-phenyl)-[(N'-methyl)-N-piperazinyl]-acetic acid ethyl ester] | 
24 | 4.16 µM | CCOC(=O)C(NC1CCCCC1)c1cc(C(C)(C)C)c(O)c(C(C)(C)C)c1 (centres unmarked) [Example 8, (3,5-Di-tert-butyl-4-hydroxy-phenyl)-[(cyclohexyl)-amino]-acetic acid etyl ester] | 
25 | 29.6 µM | CCOC(=O)C(NCc1ccc(OCCN(CC)CC)cc1)c1cc(C(C)(C)C)c(O)c(C(C)(C)C)c1 (centres unmarked) [Example 37, (3,5-Di-tert-butyl-4-hydroxy-phenyl)-[4-(2-diethylamino-ethoxy)-benzylamino]-acetic acid ethyl ester] | 
26 | 10 µM | CCOC(=O)C(NCc1cccnc1)c1cc(C(C)(C)C)c(O)c(C(C)(C)C)c1 (centres unmarked) [Example 2, (3,5-Di-tert-butyl-4-hydroxy-phenyl)-[(pyridin-3-ylmethyl)-amino]-acetic acid ethyl ester] | 20 µM
27 | 0.8 µM | CCOC(=O)C(c1cc(C(C)(C)C)c(O)c(C(C)(C)C)c1)N1CCOCC1 (centres unmarked) [Example 54, (3,5-Di-tert-butyl-4-hydroxy-phenyl)-(N-morpholinyl)-acetic acid ethyl ester] | 1.3 µM
28 | 7.27 µM | CCOC(=O)C(NCc1ccncc1)c1cc(C(C)(C)C)c(O)c(C(C)(C)C)c1 (centres unmarked) [Example 3, (3,5-Di-tert-butyl-4-hydroxy-phenyl)-[(pyridin-4-ylmethyl)-amino]-acetic acid ethyl ester] | 25.4 µM
29 | 0.65 µM | CCOC(=O)C(c1cc(C(C)(C)C)c(O)c(C(C)(C)C)c1)N(C)C (centres unmarked) [Example 17, (3,5-Di-tert-butyl-4-hydroxy-phenyl)-dimethylamino-acetic acid ethyl ester] | 
30 | 12.2 µM | CCOC(=O)C(NCC1CC1)c1cc(C(C)(C)C)c(O)c(C(C)(C)C)c1 (centres unmarked) [Example 12, (Cyclopropylmethyl-amino)-(3,5-di-tert-butyl-4-hydroxy-phenyl)-acetic acid ethyl ester] | 
31 | 10.9 µM | CCNC(C(=O)OCC)c1cc(C(C)(C)C)c(O)c(C(C)(C)C)c1 (centres unmarked) [Example 51, (3,5-Di-tert-butyl-4-hydroxy-phenyl)-(ethylamino)-acetic acid ethyl ester] | 
32 | 9.37 µM | CCOC(=O)C(NCc1ccoc1)c1cc(C(C)(C)C)c(O)c(C(C)(C)C)c1 (centres unmarked) [Example 41, (3,5-Di-tert-butyl-4-hydroxy-phenyl)-[(furan-3-ylmethyl)-amino]-acetic acid ethyl ester] | 
